Experimental findings from ChEMBL document CHEMBL1201862, “PubChem BioAssay data set” (2004) are described below.

Some test systems named below: 786-0; BT-549; DU-145; HCT-116; HOP-92; K562; MDA-N; NCI-H226; NCI/ADR-RES; OVCAR-4; OVCAR-8; PC-3; SF-268; SF-539; SK-MEL-28; SK-MEL-5; SK-OV-3; SNB-19; UACC-257; HCT-15.
Holding throughout (experiment): inhibition of tumour cell growth, NCI panel, 48 h

The structures appear in SMILES notation.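 Where inhibition never reached the appropriate level, the endpoint shown equals the highest concentration tested. Otherwise, values were interpolated linearly from a five-concentration, 48-hour dose response in 96-well plates. GI50 = concentration required for 50% inhibition of growth.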 The source made the active and inactive calls. Cut-off read from the data, not from the text of the source: active = GI50 up to about 1.1 µM and inactive = higher.

Regarding `N#C/C=C\c1ccc(-c2cc(C(F)(F)F)cc(C(F)(F)F)c2)o1`, the GI50 in the test with 786-0 is 27.2 µM (inactive); in the test on BT-549, 36.7 µM (inactive); with DU-145, > 100 µM (inactive); in the test on HCT-116 it was 35.4 µM (inactive); with HOP-92 it was 20.7 µM (inactive); in the test on K562, 42.1 µM (inactive). Also, the GI50 with MDA-N was 22 µM (inactive); in the test with NCI-H226, 55.8 µM (inactive); in the test on NCI/ADR-RES, 41.6 µM (inactive); in the test with OVCAR-4, 91.8 µM (inactive); in the test on OVCAR-8, 23 µM (inactive); in the test with PC-3, > 100 µM (inactive). Besides, the GI50 in the test on SF-268 was 25.9 µM (inactive); in the test with SF-539, 10 µM (inactive); in the test with SK-MEL-28, 45.3 µM (inactive); in the test with SK-MEL-5, 14.9 µM (inactive); in the test on SK-OV-3, 30.3 µM (inactive); in the test on SNB-19, 30 µM (inactive). In addition, in the test with UACC-257, the GI50 is > 100 µM (inactive).
`Cc1ccc(/C=C2\N=C(N3CCCCC3)NC2=O)cc1`: the GI50 in the test with 786-0 was > 100 µM (inactive); in the test on BT-549, > 100 µM (inactive); with DU-145 it was > 100 µM (inactive); in the test with HCT-116, > 100 µM (inactive); with HCT-15 it was more than 100 µM; with HOP-92, > 100 µM (inactive). In addition, the GI50 in the test with MDA-N was > 100 µM (inactive); in the test on NCI-H226, > 100 µM (inactive); with NCI/ADR-RES, 70.8 µM (inactive); in the test on OVCAR-4, > 100 µM (inactive); in the test on OVCAR-8, 64.1 µM (inactive); in the test on PC-3, > 100 µM (inactive). The GI50 is 98.6 µM (inactive) in the test with SF-268; > 100 µM (inactive) in the test with SF-539; > 100 µM (inactive) in the test with SK-MEL-28; > 100 µM (inactive) in the test with SK-OV-3; > 100 µM (inactive) in the test with SNB-19; > 100 µM (inactive) in the test on UACC-257.
`COc1cc(OC)c2nc3occc3c(OC)c2c1`: the GI50 in the test with 786-0 was 96.4 µM (inactive); in the test on BT-549, > 100 µM (inactive); in the test on DU-145, > 100 µM (inactive); in the test on HCT-116, 76 µM (inactive); in the test with HCT-15, 30.4 µM; in the test with HOP-92, > 100 µM (inactive). For the same compound, the GI50 was > 100 µM (inactive) in the test on MDA-N; > 100 µM (inactive) in the test with NCI-H226; > 100 µM (inactive) with NCI/ADR-RES; 37.1 µM (inactive) with OVCAR-4; 99.5 µM (inactive) in the test with OVCAR-8; > 100 µM (inactive) with PC-3. The GI50 in the test with SF-268 is > 100 µM (inactive); in the test on SF-539 it was > 100 µM (inactive); with SK-MEL-28, > 100 µM (inactive); in the test with SK-MEL-5, 45.7 µM (inactive); in the test with SK-OV-3, 97.5 µM (inactive); in the test on SNB-19, 66.4 µM (inactive). Also, the GI50 in the test with UACC-257 is > 100 µM (inactive).
For `N#C/C(=C\c1ccc(F)cc1)c1nc2ccccc2c(=O)[nH]1`, the GI50 in the test with 786-0 was > 100 µM (inactive); in the test on BT-549, 36.8 µM (inactive); with DU-145, > 100 µM (inactive); with HCT-116, > 100 µM (inactive); with HCT-15, more than 100 µM; in the test on HOP-92 it was 82.2 µM (inactive). For the same compound, the GI50 with K562, with MDA-N, in the test on NCI-H226, in the test with NCI/ADR-RES, with OVCAR-4 and with OVCAR-8 was > 100 µM (inactive) in each case. For the same compound, the GI50 is > 100 µM (inactive) in the test with PC-3; 58.6 µM (inactive) in the test with SF-268; > 100 µM (inactive) with SF-539; > 100 µM (inactive) in the test on SK-MEL-28; > 100 µM (inactive) in the test on SK-OV-3; > 100 µM (inactive) with SNB-19. The GI50 in the test on UACC-257 is > 100 µM (inactive).
For `COc1ccc(-c2nnc3nc4ccccc4n3c2O)cc1`, the GI50 with 786-0 was > 100 µM (inactive); in the test on BT-549, > 100 µM (inactive); in the test with DU-145, > 100 µM (inactive); in the test with HCT-116, > 100 µM (inactive); in the test on HCT-15, more than 100 µM; in the test with HOP-92 it was 54 µM (inactive). Also, the GI50 with MDA-N, in the test with NCI-H226, with NCI/ADR-RES, with OVCAR-4, with OVCAR-8 and with PC-3 was > 100 µM (inactive) throughout. Moreover, the GI50 with SF-268, in the test on SF-539, in the test with SK-MEL-28, in the test with SK-MEL-5, in the test with SNB-19 and with UACC-257 was > 100 µM (inactive) in each case.
Take `COc1ccc(Nc2ccc3ccccc3c2-c2c(O)ccc3ccccc23)cc1`: the GI50 was 17.1 µM (inactive) in the test with 786-0; 24.4 µM (inactive) in the test with BT-549; 17.5 µM (inactive) in the test on DU-145; 17.5 µM (inactive) in the test with HCT-116; 17.6 µM in the test with HCT-15; 4.16 µM (inactive) in the test with HOP-92. For the same compound, the GI50 in the test on K562 is 7.23 µM (inactive); in the test with MDA-N, 12.6 µM (inactive); in the test on NCI-H226, 16.6 µM (inactive); in the test with NCI/ADR-RES it was 15.4 µM (inactive); with OVCAR-4, 19 µM (inactive); in the test on OVCAR-8, 18.1 µM (inactive). The GI50 in the test with PC-3 is 15.8 µM (inactive); with SF-268 it was 17.8 µM (inactive); with SF-539 it was 25.7 µM (inactive); in the test on SK-MEL-28, 13.1 µM (inactive); in the test with SK-MEL-5 it was 17 µM (inactive); in the test with SNB-19 it was 17.3 µM (inactive). Further, the GI50 with UACC-257 was 22.1 µM (inactive).
As for `COC(=O)[C@]1(c2cc3ccccc3[nH]2)CC2CN(C(=O)OCc3ccccc3)C1C=C2OC` (stereo not given in full), the GI50 with 786-0 was 36.7 µM (inactive); with BT-549, 31 µM (inactive); with DU-145, 35.5 µM (inactive); with HCT-116, 28.8 µM (inactive); with HCT-15 it was 34.8 µM; in the test on HOP-92 it was 32.5 µM (inactive). Moreover, the GI50 in the test with K562 is 37.4 µM (inactive); in the test with MDA-N, 32.3 µM (inactive); in the test on NCI-H226 it was 23.1 µM (inactive); in the test on NCI/ADR-RES it was 38.3 µM (inactive); in the test with OVCAR-4, 24.9 µM (inactive); with OVCAR-8 it was 43.4 µM (inactive). In addition, the GI50 is 26.7 µM (inactive) with PC-3; 37.2 µM (inactive) in the test on SF-268; 25.4 µM (inactive) with SF-539; 38 µM (inactive) with SK-MEL-28; 36.9 µM (inactive) with SK-OV-3; 42.1 µM (inactive) with SNB-19. Also, the GI50 in the test with UACC-257 is 23 µM (inactive).
With `N#Cc1c(N)c2c(c(-c3ccccc3)c1-c1ccccc1)C(=O)N(NC(=O)c1ccccc1)C2=O`, the GI50 in the test with 786-0 is 76.9 µM (inactive); with BT-549 it was > 100 µM (inactive); in the test with DU-145 it was > 100 µM (inactive); in the test with HCT-116 it was 19.6 µM (inactive); in the test with HCT-15, more than 100 µM; with HOP-92 it was 60.5 µM (inactive). Also, the GI50 with K562 is 96.8 µM (inactive); in the test on MDA-N, 72.6 µM (inactive); in the test on NCI-H226, > 100 µM (inactive); in the test on NCI/ADR-RES it was 89.5 µM (inactive); with OVCAR-4, > 100 µM (inactive); with OVCAR-8, > 100 µM (inactive). The GI50 in the test on PC-3 is 65.2 µM (inactive); in the test with SF-268, > 100 µM (inactive); in the test with SF-539 it was 64.4 µM (inactive); with SK-MEL-28, > 100 µM (inactive); in the test with SK-MEL-5 it was 68.7 µM (inactive); with SNB-19 it was 58.5 µM (inactive). The GI50 in the test on UACC-257 was > 100 µM (inactive).
